# Test results taken from patent US9791451B2, “Squaraine based fluorescent probe and a process for the preparation thereof” (Council of Scientific & Industrial Research, priority 2013, dated 2017).
# Like-named read-outs stand apart in the source and are kept apart here.
# Columns and labels:
# Hep-G2 cells [1] = format: cell-based; settings: for Fluorescence Intensity, DAPI Image: 380 nm exc; for Fluorescence Intensity, DAPI Image / Fluorescence Intensity, Alexa Image: complex 1×10^−6 M; for Fluorescence Intensity, Alexa Image: 640 nm exc
# Procedure: (§1) The culture medium was prepared by dissolving 13.4 g of DMEM-high glucose (Sigma, USA) in 1 L of distilled water. Sodium bicarbonate (3.7 g L^−1) was added to the medium and the pH of the medium was adjusted to 7.4. This medium was then sterilized by passing through a sterile filter assembly fitted with a 0.22 μm filter (Millipore, USA) using a vacuum pump. Later, the medium was stored in pre-sterilized Borosil polypropylene bottles, at 4° C., until further use. To the prepared culture medium an antibiotic mixture (20 μL mL^−1 of 100× concentrate, Sigma, USA) was added. Fetal bovine serum (FBS) (Sigma, USA) was also added to the medium to give a final concentration of 10% (to 900 mL medium, 100 mL of FBS was added).
# Hep G2 cells (Human Hepatocellular carcinoma cell lines), which was obtained, from National Centre for Cell Science, Pune, India, were stored in cryovials at −196° C. in liquid nitrogen, in a medium containing 70% FBS, 10% dimethyl sulfoxide (DMSO) and 20% DMEM. For revival, the vials were thawed by placing them in a water-bath maintained at 37° C. for 2-3 minutes followed by centrifugation at 3000 rpm for 3 minutes. Supernatent was removed and the pellet after suspending in medium were transferred into a radiation sterilized culturing flask, T-25 cm^2 (BD Biosciences) inside the laminar flow. Subsequently, the flask was placed in a CO2 incubator for 2 h. The viable cells stick to the culture flask while the dead cells remain in the medium. Later the medium was replaced with fresh medium containing 10% FBS and incubated till a cell confluency of 70-80%. The medium was then discarded following desired confluency. Following confluency, since the Hep G2 cells are adherent in nature, they were trypsinised by using 1 mL of trypsin (0.25%)—EDTA (0.53 mM) buffer containing 0.9% sodium chloride for […]. The cells were then transferred to a centrifuge tube and centrifuged at 2000 rpm for 3 min, followed by the removal of the supernatant.
# For sub culturing, fresh DMEM containing 10% FBS was added under aseptic conditions. Cells were flushed with the help of pipette (1 mL) until the cells are completely dispersed into the medium. The cells were then diluted in a sterile complete medium at 1:3 times and transferred into fresh culture flasks. Then the flasks were placed inside CO2 incubator.
# The 1:6 Sq-BSA Complex whose sensitivity of pH lies within the physiological region and due to the ratiometric fluorescence response (FIG. 14) was used in this system for monitoring minor pH fluctuations inside cells ratiometrically. Hep-G2 cells were pre-incubated with phosphate buffer of different pH (6.5, 7.0, 7.5) and kept for 10 minutes. The 1:6 Sq-BSA complex (1×10^−6 M), which was prepared by mixing 5 μl of Sq (4×10^−5 M, prepared in acetonitrile) and 15 μl of BSA protein (1.2×10^−3 M, prepared in phosphate buffer 4.2) was added to each cells and kept for 10 minutes. The cells were then centrifuged and diluted for 2 times and then images has taken using confocal fluorescence microscope using alexa (640 nm exc) and DAPI (380 nm exc) as filters. With respect to the pH of the wells the fluorescence intensity from the DAPI image was enhanced and the alexa image got quenched. Quantitative data for pH measurements in cells were obtained using bio-rad image data, explorer software (table 2). The viability of the cells after incubation of Sq-BSA complex was confirmed by the bright-field transmission measurements (FIG. 15 c, bottom).
# [2] = Fluorescence detection of thiols (GSH) by Sq, selectivity and sensitivity; settings: pH 8.0
# Procedure: Sq detects GSH quantitatively with high sensitivity (2 nM) (FIG. 3). Formula 1 prepared in 30% ACN/25 mM phosphate buffer is used for monitoring thiol variations inside cells. […] The aggregation was confirmed by temperature-dependent UV/Vis and emission spectroscopic studies in 15% acetonitrile/water mixture (FIG. 5a and FIG. 5b). The self-assembly of Sq was established further by atomic force microscopy (AFM), transition electron microscopy (TEM) and DLS analysis. […] Formula 1 prepared in 25 mM phosphate buffer solution at a pH of 4.2 labels serum albumin proteins noncovalently, which is evident from the UV-vis and emission spectroscopic studies. The broad absorption (550-850 nm) corresponding to the absorption of Sq aggregates narrowed with a turn-on fluorescence at 700 nm exc @ 640 nm) emission upon addition of BSA protein was observed (FIGS. 7a & 7b). The solution of the Sq dye in phosphate buffer has a blue color but nonemissive (FIG. 7c, top). […] The 1:6 Sq-BSA complex whose pH sensitivity lies within the physiological region and due to the ratiometric fluorescence response (FIG. 14) this system was used for monitoring minor pH fluctuations inside cells ratiometrically. […] Quantitative data for pH measurements in cells were obtained using bio-rad image data explorer software (table 2). […]
# [3] = Stability of the dye over pH; format: physicochemical
# Source text: Even though noncovalent interaction of serum albumin proteins and covalent interaction of thiol containing small molecules with squaraine dyes are known in individual cases, achieving both type of interaction by a single probe in a reversible fashion with an external stimulus remains challenging. Therefore, the first and foremost task was identifying an appropriate switchable dye molecule, which is stable at a broad pH window with distinct emission wavelengths during the different modes of interactions and having a tunable pH responsive interaction. […] This absorption band is similar to the absorption of Sq in acetonitrile in which the molecule exists in the monomeric state. […] Sq (6 μM) in a 25 mM phosphate buffer (pH 4.2) has no emission at 700 nm due to the aggregation. Upon addition of BSA protein, a gradual enhancement in the fluorescence intensity at 700 nm was observed (FIG. 7b). This fluorescence enhancement is due to the disassembly of aggregates and the consequent noncovalent interaction between Sq and BSA protein. The solution of the Sq dye in 25 mM phosphate buffer has a blue color and at this stage the dye is non emissive (FIG. 7c, top).
# [4] = tested on: other thiol and nonthiol containing proteins (heamoglobin, glutathione reductase, bromelain); experiment: Selectivity against other thiol and nonthiol containing proteins; format: binding
# Source text: (§2) This selectivity apparently originates from the Sq disassembly driven by the molecular recognition sites of the serum albumin proteins.
# BSA protein = BSA protein (Bos taurus, UniProt P02769); experiment: Noncovalent (pH 4.2) and covalent (pH 8.2) labeling of serum albumin, fluorescence turn-on; format: binding, Bovine; settings: 25 mM phosphate buffer, 6 μM
# Procedure: Stock solution of Sq (1.2×10^−3 M) was prepared in acetonitrile and stock solution of BSA protein (2.4×10^−3M) was prepared in 25 mM phosphate buffer at pH 4.2. 15 μL of Sq from the stock solution is added to the 25 mM phosphate buffer at pH 4.2, to make the resulting concentration of the solution into 6×10^−6 M. To this solution different volumes ranging from 7.5-150 μL of BSA protein were added and the absorption and emission spectra were recorded each time after 20 minutes. The broad absorption (550-850 nm) corresponding to the absorption of Sq aggregates narrowed with a turn-on fluorescence at 700 nm (λexc @ 640 nm) emission was observed.
# Stock solution of Sq (1.2×10^−3 M) was prepared in acetonitrile and stock solution of BSA protein (1.2×10^−3 M) was prepared in 25 mM phosphate buffer at a pH of 8.2. 15 μL of Sq from the stock solution is added to 25 mM phosphate buffer at pH 8.2, to make the resulting concentration of the solution to 6×10^−6 M. To this solution different volumes ranging from 1.5-36 μL of BSA protein were added and the absorption and emission spectra were recorded at 15 minutes interval. The broad absorption (550-850 nm) corresponding to the absorption of Sq aggregates quenched with concomitant formation of an absorption at 380 nm was observed (FIG. 8a). […]
# [5] = Self-assembly morphology by AFM, TEM and DLS; format: physicochemical
# Source text: The self-assembly of Sq was established by atomic force microscopy (AFM), transition electron microscopy (TEM) and DLS analysis. […] The dynamic light scattering (DLS) measurements of a buffer solution containing.
# Hep-G2 cells [6] = experiment: Detection of minor thiol fluctuations inside HepG2 cells pre-treated with NEM; format: cell-based, Human; settings: NEM 3×10^−3 M to 3×10^−6 M, 15 minutes; dye 10 minutes
# Procedure: as §1
# Hep G2 cells (Human Hepatocellular carcinoma cell lines), which was obtained, from National Centre for Cell Science, Pune, India, were stored in cryovials at −196° C. in liquid nitrogen, in a medium containing 70% FBS, 10% dimethyl sulfoxide (DMSO) and 20% DMEM. […]
# Hep-G2 cells were pre-incubated with NEM of various concentrations (3×10^−3 M to 3×10^−6 M) and kept for 15 minutes. […] The cells were then centrifuged and diluted for 2 times and then images were-taken using confocal fluorescence microscope using alexa (640 nm exc) and DAPI (380 nm exc) as filters.
# [7] = Selectivity against small thiol containing molecules in self-assembled state; settings: 10 equivalent; Sq 6×10^−6 M; 480 nm
# Source text: The selectivity of our nanoprobe towards serum albumin proteins from small thiol containing molecules like cysteine, homocysteine, glutathione, mercaptoethanol, dithiothreitol, cystamine and thioglycolic acid at a higher pH of 8.2, where the dye is expected to undergo thiol alkylation reaction is investigated. […] Bar diagram represents the selectivity of Sq (6×10^−6 M) for BSA and HSA protein (6×10^−6 M) from other small thiol containing molecules (FIG. 10) which clearly indicate that the probe in its self-assembled state is able to detect serum albumin protein among other thiol containing small molecules.
# HSA protein = HSA protein (Homo sapiens, UniProt P02768); experiment: Noncovalent (pH 4.2) and covalent (pH 8.2) labeling of serum albumin, fluorescence turn-on; format: binding; settings: 25 mM phosphate buffer, 6 μM
# Source text: as §2
# Chain of HSA protein (P02768 25-609): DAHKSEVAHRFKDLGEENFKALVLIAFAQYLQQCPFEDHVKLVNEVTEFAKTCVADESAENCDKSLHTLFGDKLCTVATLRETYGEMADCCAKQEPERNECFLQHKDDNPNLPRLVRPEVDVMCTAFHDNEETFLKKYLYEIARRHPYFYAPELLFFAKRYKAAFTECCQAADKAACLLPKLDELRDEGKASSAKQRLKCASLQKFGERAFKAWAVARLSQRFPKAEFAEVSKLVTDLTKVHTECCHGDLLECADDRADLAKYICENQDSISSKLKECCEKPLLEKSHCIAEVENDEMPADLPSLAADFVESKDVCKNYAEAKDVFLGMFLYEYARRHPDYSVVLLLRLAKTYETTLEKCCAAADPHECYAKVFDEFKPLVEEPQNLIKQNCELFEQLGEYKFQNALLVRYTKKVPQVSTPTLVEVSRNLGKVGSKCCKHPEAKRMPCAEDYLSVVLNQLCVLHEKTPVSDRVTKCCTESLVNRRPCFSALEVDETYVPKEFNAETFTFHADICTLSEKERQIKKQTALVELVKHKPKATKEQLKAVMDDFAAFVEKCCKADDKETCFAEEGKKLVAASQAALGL
# Chain of BSA protein (P02769 25-607): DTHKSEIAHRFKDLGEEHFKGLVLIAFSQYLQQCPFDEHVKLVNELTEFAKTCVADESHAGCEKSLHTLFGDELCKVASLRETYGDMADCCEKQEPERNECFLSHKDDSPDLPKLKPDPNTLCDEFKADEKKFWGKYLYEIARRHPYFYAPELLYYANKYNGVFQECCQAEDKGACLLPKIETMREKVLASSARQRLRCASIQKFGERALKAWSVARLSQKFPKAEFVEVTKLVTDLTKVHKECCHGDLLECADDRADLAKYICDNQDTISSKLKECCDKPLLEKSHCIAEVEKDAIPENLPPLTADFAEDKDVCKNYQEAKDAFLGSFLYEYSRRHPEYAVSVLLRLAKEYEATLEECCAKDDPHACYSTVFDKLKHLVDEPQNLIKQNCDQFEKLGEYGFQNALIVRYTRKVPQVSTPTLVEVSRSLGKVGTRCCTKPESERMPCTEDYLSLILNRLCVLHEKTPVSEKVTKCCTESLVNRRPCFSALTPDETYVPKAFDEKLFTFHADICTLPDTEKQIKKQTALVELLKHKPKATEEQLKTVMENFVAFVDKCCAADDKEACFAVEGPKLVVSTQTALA
Compound,viability of the cells after incubation (Hep-G2 cells [1]),"Fluorescence Intensity, DAPI Image (Hep-G2 cells [1]; pH 6.5)","Fluorescence Intensity, Alexa Image (Hep-G2 cells [1]; pH 6.5)","Fluorescence Intensity, DAPI Image (Hep-G2 cells [1]; pH 7.0)","Fluorescence Intensity, Alexa Image (Hep-G2 cells [1]; pH 7.0)","Fluorescence Intensity, DAPI Image (Hep-G2 cells [1]; pH 7.5)","Fluorescence Intensity, Alexa Image (Hep-G2 cells [1]; pH 7.5)","selectivity toward thiols among amino acids (fluorescence at 510 nm) ([2]; 20 equivalence of 9 amino acids, 1 equivalence Cys, Hcy, GSH)","detection limit for GSH (fluorescent intensity at 510 nm) ([2]; 30% ACN/25 mM phosphate buffer, λexc 380 nm) [nM]",pH range of stability [3],"fluorescence response with heamoglobin, glutathione reductase, bromelain at pH 8.2 ([4]; 0.10 equivalence, 480 nm)","fluorescence response with other thiols and nonthiol containing proteins at pH 4.2 ([4]; 10 equivalence, 700 nm)",fluorescence response with BSA at pH 8.2 (covalent labeling) (BSA protein; λexc 380 nm),fluorescence response with BSA at pH 4.2 (noncovalent labeling) (BSA protein; λexc 640 nm),"diameter of spherical aggregates (AFM and TEM) ([5]; 6×10^−6 M in 25 mM phosphate buffer, pH 4.2)","mean diameter of aggregates (DLS) ([5]; buffer solution, Sq 6 μM) [nm]",fluorescence intensity in cells versus NEM concentration (Hep-G2 cells [6]),fluorescence response with thiol containing small molecules at pH 8.2 [7],fluorescence response with HSA at pH 8.2 (covalent labeling) (HSA protein; λexc 380 nm),fluorescence response with HSA at pH 4.2 (noncovalent labeling) (HSA protein; λexc 640 nm)
1:6 Sq-BSA complex: complex of squaraine dye Sq with BSA protein in ratio 1:6,confirmed,8.5,39.84,24.61,21.47,30.18,18.08,,,,,,,,,,,,,
"CCCCN(CCCC)c1ccc(C2=C(O)C(c3ccc(/C=C/c4cc(OC)ccc4OC)n3CCOCCOCCOC)C2=O)cc1 (centres unmarked) [Sq, (E)-2-(4-(dibutylamino)phenyl)-4-(5-(2,5-dimethoxystyryl)-1-(2-(2-(2-methoxyethoxy)ethoxy)ethyl)-1H-pyrrol-2-yl)-3-hydroxycyclobut-2-enone]",,,,,,,,highly selective to GSH,2,2-12,unable to produce fluorescence enhancement at 480 nm,no fluorescence enhancement in the NIR region,green emission at 480 nm,fluorescence enhancement at 700 nm,100-300 nm,200,gradual quenching,unable to generate much fluorescent enhancement in the 480 nm region,green emission at 480 nm,fluorescence enhancement at 700 nm
